Drawing on the METLIN SMRT retention time set (Domingo-Almenara et al. 2019), this text covers RP-LC retention time for 79 compounds.

This series is described as follows: gradient 5% acetonitrile 3 min, to 50% in 2 min, to 85% in 15 min, held 3 min, 100 µL/min. Conditions: column: Zorbax Extend-C18 2.1 x 50 mm; eluents: water / acetonitrile, 0.1% formic acid. The procedure, abridged:
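Pure standards were run in mixtures of ~100 molecules by HPLC coupled to a quadrupole time-of-flight mass spectrometer. The column was a Zorbax Extend-C18 (2.1 × 50 mm, 1.8 μm) at 100 μL/min, with water and acetonitrile each containing 0.1% formic acid, in positive and negative ionization mode. Dead and dwell volumes were 40 μL and 900 μL. Retention time was taken from computationally picked adduct peaks, each manually inspected, with data collected over 3 months.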
`CCCn1nc(C)cc1CN(C)C(=O)c1cn2ccccc2n1` registered an RP-LC retention time of 591 s.
With `CCOC(=O)c1[nH]c(C)c(C(=O)C(C)N(C(=O)c2cccc(F)c2)C(C)C)c1C` (centres undefined), the RP-LC retention time turned out to be 883 s.
With `CCCC(=O)Nc1ccc(C(=O)Nc2nc(-c3ccccc3)cs2)cc1` the figure was 912 s; with `Cc1ccc(NC(=O)N2CCC(n3cnnc3C3CC3)C2)cc1` (centres undefined), 635 s; with `Cc1nn(CC(=O)NCC2CCCO2)c(=O)c2nc(-c3ccccc3)sc12` (centres undefined), 709 s.
With `COc1ccc(NC(=O)c2c(O)c3cccnc3n(-c3cccc(F)c3)c2=O)cc1F` the figure was 1210 s.
The same measure for `Cc1cccc(CNC(=O)CCC2CCN(c3cc(NC4CC4)ncn3)CC2)c1`: 672 s.
Regarding `CCOc1ccccc1-c1csc(NC(=O)Cc2csc(COc3cc(C)ccc3C)n2)n1`, the RP-LC retention time was 1360 s.
The same measure for `Cc1ccc(N2CCN(C(=O)c3cn4ccc(C)cc4n3)CC2)cc1`: 664 s; for `CCN(CC)C(=O)c1cc(=O)n(CC(=O)NC2CCCC2)c2ccccc12`: 685 s.
With `O=C(NCCCN1CCCCC1)C1CCCN(c2cnc3nccnc3c2)C1` (centres undefined) the figure was 560 s.
The same measure for `O=C(Cn1nc(C(=O)N2CCCC2)c2ccccc21)NCc1cccs1`: 753 s; for `Cn1c(NC(=O)c2cccc([N+](=O)[O-])c2)c(-c2cccs2)c(=O)c2ccccc21`: 701 s; for `O=C(Cc1ccc(NC(=O)c2ccc(F)c(F)c2)cc1)NC1CC1`: 686 s.
`COC(=O)C1=C(COc2ccc(C)cc2)NC(=O)NC1c1ccc(OC)c(OC)c1` (centres undefined) yielded an RP-LC retention time of 976 s.
The same measure for `CCc1ccccc1NC(=O)Cn1c(N)nc(COC)cc1=O`: 598 s.
In the case of `O=C(CSc1ccc(F)cc1)NCC(O)(c1ccccc1)C(F)(F)F` (centres undefined), the RP-LC retention time is 887 s.
With `Cc1ccc(C)c(N2CCN(c3ccnc(SCC(=O)Nc4ccc(Cl)cc4F)n3)CC2)c1` the figure was 1140 s; with `CCCC(=O)Nc1ccc(-c2nc(Cn3nc(C)cc3C)c(C)o2)cc1`, 818 s.
With `CCN1c2cc(C(=O)NC3CCN(Cc4ccccc4)CC3)ccc2C(=O)N2CCCCC21` (centres undefined) the figure was 638 s.
The same measure for `COc1ccccc1-c1ccc(N2CCN(C(=O)NC3CCCCC3)CC2)nn1`: 601 s; for `O=C(Nc1ccc(Br)cc1)Nc1ccccc1Cl`: 1140 s; for `CC(C)Cn1c(CCNC(=O)c2ccc(C#N)cc2)nc2cccnc21`: 709 s.
The compound `Cc1cccc(CNC(=O)c2cc3n(n2)CC(C)(C(=O)NC2CCCC2)N(C)C3=O)c1` (centres undefined) registered an RP-LC retention time of 731 s.
In turn, `Cc1ccc(CNC(=O)c2cn3ccncc3n2)cc1` returned an RP-LC retention time of 686 s.
The same measure for `CC(C)c1ccc(CNC(=O)C2CCN(C(=O)c3ncn4c3COC(c3ccccc3)C4)CC2)cc1` (centres undefined): 892 s; for `Cc1ccc(CNC(=O)Cn2ccc3c(SCc4ccc(F)cc4)nccc32)o1`: 735 s; for `COCCC(=O)N1CC(c2nc(CCOC)no2)C1`: 581 s.
The compound `Cc1nc(NC(=O)CCn2cnc3ccccc3c2=O)sc1C(=O)N(C)C` registered an RP-LC retention time of 589 s.
With `Cc1ccc(-n2c(=O)n(CC(=O)NCCCN3CCOCC3)c3cccnc32)cc1` the figure was 591 s; with `Cc1nncn1C1CCN(S(=O)(=O)c2ccc(C(C)C)cc2)CC1`, 674 s; with `CCc1nnc2ccc(-c3noc(COc4ccc(Cl)cc4)n3)cn12`, 770 s.
The same measure for `NC(=O)[C@@H]1C[C@H](Oc2cccnc2)CN1C(=O)CCc1nc2ccccc2s1`: 589 s; for `Cc1ccccc1NC(=O)N1CCC(n2cnc3c(C)cccc3c2=O)CC1`: 754 s.
The same measure for `Cc1ccc(-c2cn3c(CC(=O)NCC(C)c4ccccc4)csc3n2)cc1C` (centres undefined): 930 s; for `COc1ccc(Cl)cc1NS(=O)(=O)c1cc2n(c1)CCCN(C)C2=O`: 724 s; for `CCc1ccc(S(=O)(=O)N2CCN(c3ccc4nncn4n3)CC2)s1`: 693 s.
`COc1ccc(-c2ncc3c(n2)CCN(C(=O)c2cccc(Br)c2)C3)cc1` displayed an RP-LC retention time of 1020 s.
As to `COC(=O)[C@H](Cc1cccc(C(=N)N)c1)[C@@H](C)NC(=O)c1ccc(-c2cc[n+]([O-])cc2)cc1`, the RP-LC retention time amounted to 610 s.
With `CCc1ccc(C(=O)c2cnc3cc4c(cc3c2N2CCN(CC)CC2)OCO4)cc1` the figure was 608 s; with `O=C(NCc1cccs1)c1ccc2c(c1)CC(=O)N2Cc1ccccc1`, 817 s; with `Cc1ccc(NC(=O)CSc2ccc(N3CCCC(C(=O)NC4CC4)C3)nn2)cc1Cl` (centres undefined), 698 s.
The same measure for `COc1cc(NC(=O)N2CCCC2c2nc(-c3ccccc3OC)no2)cc(OC)c1` (centres undefined): 849 s.
The same measure for `CCN(CC)c1ncnc2c(-c3ccccc3)cn(CC(=O)NCC3CCCO3)c12` (centres undefined): 666 s; for `COCCC1CCN(C(=O)C2CCN(C(C)=O)CC2)CC1`: 606 s.
In turn, `CCc1ccc(NC(=O)Cn2nc(N3CCCC3)c3ccccc3c2=O)cc1` yielded an RP-LC retention time of 1030 s.
The same measure for `COc1ccc(CNC(=O)c2cc(-c3ccncc3)cn2C)cc1OC`: 605 s; for `COc1ccc(OC)c(S(=O)(=O)N2CCC(c3noc(-c4ccccc4C)n3)CC2)c1`: 1140 s; for `COc1ccc(Br)cc1CNC(=O)C1CCCN(c2ccc(N3CCOCC3)nn2)C1` (centres undefined): 668 s.
Compound `Cn1cccc1-c1cc2n(n1)CCC(=O)N2CCCC(=O)NCCCc1ccccc1` gave an RP-LC retention time of 833 s.
For the compound `CCN1CCN(Cc2nc(-c3ccc(N(C)Cc4ccccc4)nc3)no2)CC1`, the RP-LC retention time was 892 s.
With `COc1ccc(N2C(=O)CCC(C(=O)NC(C)C)C2c2ccc(OC)c(OC)c2)cc1` (centres undefined) the figure was 674 s; with `CC(=O)Nc1ccc(CCc2nc3ccc(C(=O)NC4CC4)cc3[nH]2)cc1`, 893 s.
`CCNC(=O)C1CCCN(C(=O)Nc2ccc(NC(=O)Nc3ccccc3F)cc2)C1` (centres undefined): the RP-LC retention time came out at 689 s.
`CN(CCCNC(=O)C1CCc2nc(N3CCOCC3)ncc2C1)c1ccccc1` (centres undefined) had an RP-LC retention time of 602 s.
With `COC[C@@H]1CN(C(=O)c2ccoc2C)C[C@H]1c1nc(C)no1` the figure was 539 s.
With `Cc1cc(NC(=O)C2CCCN(c3ccc(=O)n(-c4ccc(F)cc4)n3)C2)ccc1Br` (centres undefined) the figure was 899 s.
The same measure for `CC1(C(=O)NCc2ccc3c(c2)OCO3)CCN(C(=O)Nc2ccccc2C(F)(F)F)CC1`: 812 s.
Turning to `Cc1cc(NC(=O)NC(=O)c2ccccc2NC(=O)CN)ccc1Oc1ncc(Br)cn1`, the RP-LC retention time came out at 653 s.
Regarding `COc1ccccc1C(=O)N1CCCC(COc2ccc(C(=O)NC3CC3)cc2)C1` (centres undefined), the RP-LC retention time stood at 785 s.
With `Cc1cccc(S(=O)(=O)N2CCC(OCc3nc(C)no3)CC2)c1` the figure was 886 s.
With `COc1ccccc1-c1noc(C2CCCN2C(=O)Nc2cc(C)ccc2C)n1` (centres undefined) the figure was 906 s; with `O=C(Nc1nc2c(s1)CN(C(=O)C1CC=CCC1)CC2)c1cccs1` (centres undefined), 770 s; with `CSc1ccccc1C(=O)NCC1(c2ccc(F)cc2)CC1`, 875 s.
The same measure for `Cc1cccc(NC(=O)N2CCCC(C)(C(=O)NCc3ccc(F)cc3)C2)c1C` (centres undefined): 929 s; for `COc1ccc(Cl)cc1NC(=O)Cn1cccc(-c2nc(-c3ccc(OC)c(OC)c3)no2)c1=O`: 887 s; for `O=C(NCCN1CCOCC1)c1cc2sccc2n1Cc1ccc(Cl)cc1`: 713 s.
`Cc1nnc2c(=O)n(CC(=O)NCc3ccccc3C(F)(F)F)c3cccnc3n12` had an RP-LC retention time of 734 s.
With `CCCc1cc(N2CCN(C(=O)c3cccn3C)CC2)nc2nnc(CC)n12` the figure was 636 s; with `CCCN(CCC)CCc1ccc(O)c(O)c1`, 602 s; with `Cc1ccc(-c2nc3ccccn3c2NC(=O)NCc2ccco2)cc1`, 629 s.
With `O=C(Nc1cccc(-c2ccc(N3CCOCC3)nn2)c1)Nc1cc(F)ccc1F` the figure was 738 s; with `CC(NC(=O)c1ccc(Oc2nccnc2N2CCSCC2)cc1)c1ccc(F)cc1` (centres undefined), 965 s; with `Cn1nnc2c(N3CCN(C(=O)C(C)(C)Oc4ccc(Cl)cc4)CC3)ncnc21`, 850 s.
The same measure for `COc1cc(NC(=O)Cn2c(=O)n(-c3ccc(F)cc3)c(=O)c3c2cc(C)n3C)cc(OC)c1`: 798 s.
As to `CC(=O)N(Cc1nn(C)c2c1CN(Cc1ccc(OCC(N)=O)cc1)CC2)c1ccccc1`, the RP-LC retention time came to 585 s.
For the compound `O=C(NCc1csc(-c2ccccc2)n1)C1CCN(S(=O)(=O)c2ccc(Cl)s2)CC1`, the RP-LC retention time was 995 s.
With `CCCNC(=O)CC1Sc2ncccc2N(CC(C)C)C1=O` (centres undefined) the figure was 723 s; with `Cc1nnc(-c2cc(S(=O)(=O)NC3CCCCCCC3)c(C)n2C)o1`, 897 s.
